Measurements: patent US20040014671A1, “Preventives or remedies for heart failure” (priority 2000, published 2004)
Where a SMILES comes first, the peptide text is derived from it. [ ]: non-standard residue; d: D form. dTrp(2-Me) = Cc1[nH]c2ccccc2c1C[C@@H](N)C(=O)O; d2Nal = N[C@H](Cc1ccc2ccccc2c1)C(=O)O

Key:
[1] = system: dogs with occluded anterior descending coronary artery; test: Cardiac function of dog with anterior descending coronary artery occlusion after intravenous administration; type: in vivo; details: 100 μg/kg intravenously after occlusion
Method: Using a dog model of acute contractile dysfunction caused by occlusion of the anterior descending coronary artery, the inventors studied the cardiotonic action of pralmorelin.
The action of pralmorelin on the cardiac dysfunction deteriorated by occlusion of the coronary artery was evaluated by various hemodynamic parameters, cardiac output (CO), stroke volume (SV), maximal positive dP/dt of left ventricular pressure (+dP/dtmax), ejection fraction (EF), mean blood pressure (MBP), heart rate (HR), total peripheral resistance (TPR) and double product (RPP) as an index of myocardial oxygen consumption.
Pralmorelin dihydrochloride (hereunder referred to as KP-102) (prepared by the method described in WO 9304081) was dissolved in distilled water to prepare a 0.5 mg/mL solution.
In the experiment, adult beagles of either sex (weighing 9-11 kg) purchased from Nihon Nosan Kogyo K.K. (Kanagawa, Japan) were used. After arrival, the animals were allowed to eat a solid meal (CD-5, CLEA Japan, Inc. or Labo D Stock, Nark Corp.) and drink water in a room at a temperature of 20±2° C. and at a humidity of 55±15% under illumination for 12 hours a day (from 7:00 to 19:00); the animals were kept under these conditions for at least one week before use.
Anesthesia was introduced by intravenous administration of pentobarbital (30 mg/kg) and in order to maintain anesthesia, pentobarbital (5-6 mg/kg/hr) was injected continuously by means of an infusion pump (FP-W-100, Toyo Sangyo) through a polyethylene cannula retained in the right cephalic vein. The endotracheal cannula was inserted and the chest was opened at the left fourth intercostal space under artificial respiration in a tidal volume of 20 mL/kg at a rate of 18 breaths/min with an artificial respirator (SN-480-3 of Shinano Seisakusho). The left anterior descending coronary artery was carefully detached from the site of origin over a length of 1-2 cm and an occluding thread was passed through.
The chest was opened at the left fifth intercostal space and a 5-segment conductance catheter (CCS-108-DA, Unique Medical) was inserted from the cardiac apex so that all electrodes would be placed in the left ventricle. A catheter equipped with a 5 Fr microtip pressure transducer (pressure transducer catheter, Model MPC-500, MILLAR) was inserted into the left ventricle through the left carotid artery. The conductance catheter and the pressure transducer catheter inserted into the left ventricle were connected to a built-in amplifier in a ventricular volume-measuring instrument (Integral 3; VPR-1002, Unique Medical) and the changes in the left ventricular pressure (LVP) and the volume of the left ventricle were measured simultaneously. To determine the mean blood pressure (MBP), blood pressure was measured via a blood pressure amplifier (AP641G, Nihon Kohden) from the 5 Fr pressure transducer catheter inserted into the left femoral artery. Heart rate (HR) was measured with a cardiotachometer (AT-601G, Nihon Kohden) from the pulse waves of blood pressure.
The chest was opened again at the fourth intercostal space and in order to measure the cardiac output (CO(EMF)) (CO as determined by an electromagnetic blood flowmeter based method), a probe connected to an electromagnetic blood flowmeter (MFV-2100, Nihon Kohden) was fitted at the site of origin of the aorta. A spiral electrode was put in the ischemic region that occurred due to the occlusion of coronary artery and a surface electrocardiogram was recorded. A Doppler probe was fitted on the left anterior descending coronary artery and the blood flow was determined with a Doppler blood flowmeter (PD-20, Crystal Biotech). The anterior descending coronary artery was occluded with pulling up the occluding thread over a period of about 5 minutes. Complete occlusion of the blood vessel was confirmed by the change in the surface electrocardiogram and the disappearance of the Doppler sound. […]

[2] = system: papillary muscle of guinea-pig; test: Myocardial contractility (developed tension) in isolated papillary muscle of guinea-pig; details: for tension development (positive inotropic action) vs baseline: applied cumulatively 10, 30 and 100 μM, n=5, FIG. 1; for change in developed tension: isolated papillary muscle, 1 Hz stimulation
Method: The direct effect of pralmorelin on myocardial contractility was evaluated using the isolated cardiac muscle of guinea-pigs according to the standard method for evaluating myocardial contractility.
Male Hartley guinea-pigs (body weight, 301-350 g; Japan SLC) were purchased. The animals were accommodated to an environment at a temperature of 23±2° C. and a humidity of 55±15% under 12-hr light/dark cycles while they were allowed to eat and drink water ad libitum until they weighed 360-480 g. Each test substance was tested on a group of five animals.
The test substances were pralmorelin dihydrochloride (KP-102), representatives of growth hormone secretagogues such as hexarelin, ghrelin and ibutamorelin methanesulfonate (the last being hereunder referred to as MK-0677) (which were prepared by the method described in JP 6-263737 A (kokai)), as well as a recombinant human growth hormone (Sumitomo Pharmaceutical) and amrinone (Sigma) which is a known therapeutic of acute heart failure. KP-102, hexarelin and MK-0677 were dissolved in distilled water. Ghrelin was dissolved in physiological saline. Amrinone was first dissolved in dimethyl sulfoxide and then diluted with physiological saline. The growth hormone was dissolved in a dedicated solubilizer (0.3 w/v % metacresol and 3.9 w/v % D-mannitol). None of the test substance solutions should be added in an amount exceeding 1 w/v %. All reagents other than the test substances were guaranteed products of Nacalai Tesque.
The guinea-pigs were stunned with a blow to the back of their head; thereafter, the carotid artery was incised and the animals were exsanguinated to death. The chest was opened, the blood vessels in the upper part of the heart were cut and the heart was removed. The heart was immediately transferred into a Krebs-Henseleit (K-H) nutrient solution (NaCl, 118.0 mM; KCl, 4.7 mM; CaCl2. 2H2O, 1.0 mM; KH2PO4, 1.2 mM; MgSO4.7H2O, 1.2 mM; NaHCO3, 25.0 mM; glucose, 11.0 mM) that had been fully aerated with 95% O2-5% CO2. The heart was fixed on a rubber-lined Petri dish with needles such that its front face was seen. The ventricular wall of the upper right ventricle (toward the atrium) was excised transversely along the atrium, then excised longitudinally along the interventricular septum so that the ventricular wall was opened to expose the right ventricular papillary muscle. Subsequently, the entire surface of the left ventricle was cut open from the aorta (down) to the apex and the anterior wall of the left ventricle was opened wide, to both right and left, and fixed to expose the papillary muscle of the left ventricle. The tricupsid or mitral valve was cut off from the ventricle and the papillary muscle was cut off at the base to prepare a specimen of papillary muscle. The base of the specimen was fixed to field stimulating electrodes in an organ bath filled with 15 mL of the nutrient solution. The tendinous cord adhering to the valve was tied up with a thread and connected to an FD pickup (TB-612T, Nihon Kohden). A resting tension of 0.5 g was loaded and the papillary muscle was driven with an electric stimulator (SEN-3201, Nihon Kohden) at a frequency of 1 Hz by pulses of 20-ms duration and at a voltage intensity about 1.2 times the threshold. After an equilibration period of about 1 hr, KP-102, hexarelin and amrinone were each applied cumulatively up to amounts of 10, 30 and 100 μM. After examination of the changes in inotropic action due to the application of the test substances, 12.5 mM of CaCl2 was added and the maximum tension that was developed by each specimen was obtained. The developed tension was recorded with a multi-purpose preamplifier (RMP-6008, Nihon Kohden) and a recorder (WT-647G, Nihon Kohden).
Each result was expressed by mean ± standard error. […]

[3] = system: anesthetized open-chest rabbits; test: Cardiac function of anesthetized open-chest rabbit after intravenous administration; type: in vivo
Method: The effects of pralmorelin on cardiac function were evaluated by measuring various parameters [blood pressure, heart rate, systolic left ventricular pressure (LVPsys), and maximal positive dP/dt (+dP/dtmax) obtained by differentiating the waveform of left ventricular pressure (LVP)]. The value of the maximal positive dP/dt for the left ventricular pressure (+dP/dtmax) is particularly important to determine if the cardiotonic action is sufficient to treat acute heart failure.
Pralmorelin dihydrochloride (hereunder referred to as KP-102) (prepared by the method described in WO 9304081) was dissolved in distilled water for injection to prepare a 1.5 mg/mL solution.
Male NZW-strain rabbits (Kitayama Labes) weighing about 2 kg were used in the experiment. After arrival, the animals were allowed to eat a solid meal (Labo R Stock, Oriental Yeast Co., Ltd.) and drink water in a room at a temperature of 20±2° C. and at a humidity of 55±15% under 12-hr light/ dark cycles (from 7:00 to 19:00); the animals were kept under these conditions for at least 6 days before use.
Rabbits were anesthetized by administering 30 mg/kg of sodium pentobarbital into the auricular vein at a slow speed with attention to their breathing. The animals were then fixed in supine position and an endotracheal cannula was inserted. Under artificial respiration (tidal volume, 25 mL/breath; ventilation frequency, 45 breaths/min: SN-480-7 of Shinano Seisakusyo), the chest of each animal was opened by midline incision and the pericardium was incised to expose the heart. The left ventricular pressure (LVP) was measured with a pressure transducer (TP-300T, Nihon Kohden) and a pressure amplifier (AG-610G, Nihon Kohden) as a cannula with syringe was inserted from the cardiac apex into the left ventricle. The waveform of LVP was differentiated with a differentiator unit (ED-601, Nihon Kohden) to determine the maximal positive dP/dt(+dP/dtmax), which was used as an index for cardiac contractility. Blood pressure was measured with a pressure amplifier (AP-610G, Nihon Kohden) via a pressure transducer (TP-300T, Nihon Kohden) connected to a cannula inserted into the left femoral artery. Heart rate was measured with a cardiotachometer (AT-601G, Nihon Kohden) that was driven by counting the pulse waves of LVP. The parameters mentioned above were recorded on a recorder (TA-11, Gould). A cannula was inserted into the left femoral vein so as to assist in the administration of the test substance. The rectum temperature of each animal was controlled at 39° C. with a body temperature controller (TK-43, Asahi Denshi). The anesthetic was added as required but additional anesthetization should be avoided during the measurements.
After each parameter stabilized, distilled water (0.2 mL/kg) was administered over one minute with an infusion pump (FP-W-100, Toyo Sangyo K.K.) and observations were made for 5 minutes after the administration to see whether the vehicle would have no effect. About 5 minutes after the administration of distilled water, the test substance was administered with an infusion pump in a volume of 0.2 mL/kg over one minute according to the grouping method specified above. Each hemodynamic parameter was measured both before administration and 1, 3, 5, 10, 15, 20 and 25 minutes after administration and the percent changes from the basal values were calculated. In some animals, measurement was conducted until 40 minutes after the administration of the test substance.
The results were each expressed by mean ± standard deviation. Any difference between groups was tested by repeated measures ANOVA (analysis of variance); The significance level was set at 5%.

[4] = 300 μg/kg intravenously over one minute, n=4

`C[C@H](NC(=O)[C@@H](Cc1ccc2ccccc2c1)NC(=O)[C@@H](C)N)C(=O)N[C@@H](Cc1c[nH]c2ccccc12)C(=O)N[C@H](Cc1ccccc1)C(=O)N[C@@H](CCCCN)C(N)=O` [KP-102, D-alanyl-3-(naphthalen-2-yl)-D-alanyl-L-alanyl-L-tryptophyl-D-phenylalanyl-L-lysinamide] (H-[dA][d2Nal]AW[dF]K-NH2) was tested, and the “change in LVEDP” value [1] was “Neither of the control and KP-102 groups showed changes”, the “change in LVPsys” value [1] was “Neither of the control and KP-102 groups showed changes” and the “change in double product (RPP), index of myocardial oxygen consumption” value [1] was “Neither group experienced a change in RPP”. The “change in heart rate (HR)” value [1] was “Neither of MBP and HR changed”, the “change in mean blood pressure (MBP)” value [1] was “Neither of MBP and HR changed” and the “change in −dP/dtmax vs control group” value [1] was “no significant change”. For the same molecule, the “increase in stroke volume (SV) from baseline before administration” value ([1]; 5 minutes after administration) was 5%, the “maximal increase in ejection fraction (EF)” value ([1]; 10 minutes) was 10% and the “increase in +dP/dtmax from baseline before administration” value ([1]; 10 minutes after administration) was 7%. The “maximum increase in cardiac output (CO) from baseline before administration” value ([1]; 10 minutes after administration, n=5) was 7%, the “change in total peripheral resistance (TPR)” value ([1]; significant vs control) was “TPR dropped following the administration” and the “tension development (positive inotropic action) vs baseline” value (from here on “tension development … vs baseline”) [2] was “significant effect over the baseline value”. For the same molecule, the “onset of cardiotonic action (LVPsys, +dP/dtmax) after administration” value ([3]; 300 μg/kg intravenously) was “beginning one minute after the administration”, the “overall effect on heart rate” value ([3]; 300 μg/kg intravenously) was “little affected” and the “time of peak of cardiotonic action after administration” value ([3]; 300 μg/kg intravenously) was 5 to 10 min. The “time until blood pressure baseline value practically restored” value ([3]; 300 μg/kg intravenously) was ~25 min, the “maximum increase in +dP/dtmax, of the baseline value” [3, 4] was 22% and the “maximum increase in LVPsys, of the baseline value” [3, 4] was 13%. The “heart rate drop from baseline” value ([3]; 300 μg/kg intravenously, 3 minutes after administration) was 2%, the “heart rate increase from baseline” value ([3]; 300 μg/kg intravenously, 15 minutes after administration) was 1% and the “heart rate increase from baseline” value ([3]; 300 μg/kg intravenously, 25 minutes after administration) was 2%. The “time until baseline values (LVPsys, +dP/dtmax) restored” value ([3]; 300 μg/kg intravenously, one case with extended monitoring) was ≤ 40 min and the “mean blood pressure change vs control group” value ([3]; 300 μg/kg intravenously, p<0.05) was “significant rise of blood pressure”.

For `CC(C)(N)C(=O)N[C@H](COCc1ccccc1)C(=O)N1CCC2(CC1)CN(S(C)(=O)=O)c1ccccc12` [MK-0677, ibutamorelin methanesulfonate], the “change in developed tension” value ([2]; 100 μM) was “no changes in the developed tension”.

In the case of `Nc1cc(-c2ccncc2)c[nH]c1=O` [amrinone], the “tension development … vs baseline” value [2] is reported as “increased in a concentration-dependent manner”.

`Cc1[nH]c2ccccc2c1C[C@@H](NC(=O)[C@@H](N)Cc1cnc[nH]1)C(=O)N[C@@H](C)C(=O)N[C@@H](Cc1c[nH]c2ccccc12)C(=O)N[C@H](Cc1ccccc1)C(=O)N[C@@H](CCCCN)C(N)=O` [hexarelin] (H-H[dTrp(2-Me)]AW[dF]K-NH2) was tested, and the “tension development … vs baseline” value [2] was “very weak and by no means significant over the baseline value”.

With ghrelin the “change in developed tension” value ([2]; 1 μM) was “no changes in the developed tension”.

“recombinant human growth hormone: recombinant human growth hormone (Sumitomo Pharmaceutical)” was tested, and the “change in developed tension” value ([2]; 0.2 IU/mL) was “no changes in the developed tension”.
